Here are results for 2 compounds from US11931322B2, “Solubilizate with curcumin and optionally at least one other active substance” (priority 2017, dated 2024).

What all share (format): in vivo, Wistar rats
Assay [1] relates to thiobarbituric acid reactive substances (TBARS). Kind of assay: Thiobarbituric acid reactive substances (TBARS) in the serum of arthritic rats. Conditions: for TBARS: serum of arthritic rats, n=8, mean ± SEM. The procedure: (§1) Prof. Dr. […] from the University of Cairo, Faculty of Pharmacy at the Institute for Pharmacology, performed studies on the anti-inflammatory effect of curcumin and combinations of curcumin with Boswellia or xanthohumol, in each case in the native form and in the solubilized form according to the disclosure. Anti-inflammatory markers and antioxidant capacity were determined. Female Wistar rats with a body weight between 150 and 200 g were exposed to adjuvant induced arthritis according to Pearson et al. (1956). At day 0, the animals were administered 0.1 ml of Freund's Adjuvant (FCA) in the right hind paw, by subplantar injection. The animals were randomly divided into 12 groups of 8 animals each. All extracts or solubilizates were administered orally once daily from day 0 to day 21 following the vaccination with the adjuvant. After day 21, the animals were killed and serum samples were prepared and stored at -80° C. Measurements were made of myeloperoxidase (MPO), C-reactive protein (CRP), total antioxidant capacity (TAC), and thiobarbituratic acid reactive substances (TBARS). Oxidative stress is one of the major factors contributing to joint destruction in rheumatoid arthritis (RA). An increase in the production of so-called “reactive oxygen species (ROS)” leads to a reduced supply of endogenous antioxidants and ultimately results in the destruction of cells. The neutrophil granulocytes released in the rheumatoid joint produce free oxygen radicals which cause increased formation of lipid peroxides manifesting in an increase in serum TBARS. Therefore, an increase in antioxidant status represented by an increase in TAC can be used as an indication of protection against the development of degenerative inflammatory processes. There is an inverse relationship between the levels of TAC and TBARS, a high level of antioxidant capacity TAC corresponds to a low TBARS concentration. The table contains data on the effect of curcumin and Boswellia in native and in solubilized form, administered either alone or in combination with diclofenac in a dose of 3 mg per kg body weight once daily for 21 days, on the antioxidant capacity TAC and the thiobarbituric acid reactive substances TBARS in the serum of arthritic rats (n=8). Indicated are mean values±standard error of the mean (SEM).

In assay [2] the test system is total antioxidant capacity (TAC). Kind of assay: Total antioxidant capacity (TAC) in the serum of arthritic rats. Conditions: for TAC: serum of arthritic rats, n=8, mean ± SEM. The procedure:
as §1

Another assay deals with C-reactive protein (CRP). Kind of assay: Serum C-reactive protein (CRP) in adjuvant-induced arthritic rats. Conditions: 5 and 10 mg/kg, FIG. 1a. Here is the method: (§2) Prof. Dr. […] from the University of Cairo, Faculty of Pharmacy at the Institute for Pharmacology, performed studies on the anti-inflammatory effect of curcumin and combinations of curcumin with Boswellia or xanthohumol, in each case in the native form and in the solubilized form according to the disclosure. Anti-inflammatory markers and antioxidant capacity were determined. Female Wistar rats with a body weight between 150 and 200 g were exposed to adjuvant induced arthritis according to Pearson et al. (1956). At day 0, the animals were administered 0.1 ml of Freund's Adjuvant (FCA) in the right hind paw, by subplantar injection. The animals were randomly divided into 12 groups of 8 animals each. Group 1 was the control group. Group 2 received diclofenac as a reference drug in a dose of 3 mg/kg body weight. Group 3 received native curcumin in a dose of 5 mg/kg body weight. Group 4 received curcumin solubilized according to the disclosure in a dose of 5 mg/kg body weight. Group 5 received native curcumin in a dose of 10 mg/kg body weight, and Group 6 received curcumin solubilized in the same dose. Group 7 received native xanthohumol in a dose of 5 mg/kg body weight, and Group 8 received solubilized xanthohumol in the same dose. Group 9 received a mixture of native curcumin in a dose of 5 mg/kg body weight and native Boswellia extract in a dose of 10 mg/kg body weight. […]

In a further assay the test system is myeloperoxidase (MPO). In words: Serum myeloperoxidase (MPO) in adjuvant-induced arthritic rats. Conditions: both dosages (5 and 10 mg/kg), FIG. 2. The procedure:
as §2

[3] abbreviates: 10 mg/kg once daily for 21 days.
Setting [4] is: arthritic rats, both dosages considered.

For the compound `O=C(O)Cc1ccccc1Nc1c(Cl)cccc1Cl` [Diclofenac, diclofenac], the TBARS in assay [1] (3 mg/kg once daily for 21 days) was determined as 7.93 ± 0.84 nmol/L. Also, in assay [2] (3 mg/kg once daily for 21 days), the TAC amounted to 82.08 ± 2.96 nmol/µL.
Regarding `COc1cc(/C=C/C(=O)CC(=O)/C=C/c2ccc(O)c(OC)c2)ccc1O` [Native curcumin, curcumin], the TBARS in assay [1] (5 mg/kg once daily for 21 days) is 11.64 ± 0.39 nmol/L; in assay [1] (setting [3]), 13.18 ± 0.46 nmol/L. In addition, in assay [1] (setting [4]), the “effect on the TBARS level (in words)” value is recorded as “no significant effect”. Also, the TAC in assay [2] (5 mg/kg once daily for 21 days) stood at 60.31 ± 3.25 nmol/µL; in assay [2] (setting [3]), 68.41 ± 1.09 nmol/µL. Moreover, the “effect on TAC (in words)” value in assay [2] (setting [4]) is “no significant effect”. In addition, the “effect on rat serum CRP levels (in words)” value in the assay on C-reactive protein (CRP) is given as “inhibited rat serum CRP levels in a dose-dependent manner”. Moreover, the “effect on MPO concentration (in words)” value in the assay with myeloperoxidase (MPO) is “no effect on the MPO levels”.
